Experiment [1] relates to expression of Bone Morphogenetic Protein 7 (BMP-7) in 293S cells transfected with EP2. The experiment in a line: Kidney regeneration assay: BMP-7 expression (Northern blot) in 293S cells transfected with EP2. It is filed as cell-based, human. The settings on record: EP2 293S cells, 10^−6M, RNA extracted at 8, 16 and 24 hours. The procedure: (§1) Methods: 293S and EP293S cells are grown in Dulbecco's Modified Egale medium (DMEM, Gibco, BRL; Gaithersburg, Md.). […] Cells are harvested and RNA is extracted at 8, 16 and 24 hours. Northern blot analysis of total RNA ([…]) is carried out by probing the blots with ^32P-labeled BMP-7 probe. The blots are normalized for RNA loading by hybridization with ^32P-labeled 18s ribosomal RNA probe. […] Given the known role of BMP-7 in kidney regeneration and the ability of an prostaglandin agonist to induce BMP-7 expression in 293S kidney cells in a time and receptor specific manner indicates a role for prostaglandin agonist in kidney regeneration.

In experiment [2] the test system is expression of Bone Morphogenetic Protein 7 (BMP-7) in wild type 293S cells. The experiment in a line: Kidney regeneration assay: BMP-7 expression (Northern blot) in wild type 293S cells. In kind it is cell-based, human. The settings on record: parental 293S cell line, 10^−6M, RNA extracted at 8, 16 and 24 hours. The protocol:
as §1

Each structure is given as a SMILES string.

On to `CCCCC[C@H](O)/C=C/[C@H]1[C@H](O)CC(=O)[C@@H]1C/C=C\CCCC(=O)O` [PGE2, Prostaglandin E2], for which the “induction of expression of BMP-7” value is on record as “induce the expression of BMP-7 in the EP2 293S cells in a time dependent manner” in experiment [1] and “generally not observed” in experiment [2].

These data come from US7442702B2, “Prostaglandin agonists” (priority 1997, dated 2008).
